Key:
cancer cell = assay: Cell viability assay (resazurin); format: cell-based; details: 72 h; 3 days with compound, resazurin fluorescence; cell line not named
Summary of the method: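 Cells in DMEM GlutaMAX or line-appropriate medium are exposed to compound for 3 days at 37 °C, 5% CO2. Viability is read as resazurin fluorescence (Ex544/Em590) after 2 h incubation. In the 384-well format, cells are seeded onto 11 pre-dispensed concentrations (final DMSO <1%) and read after 3 h resazurin.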

MTH1 = MTH1 (Homo sapiens, UniProt P36639); assay: MTH1 enzymatic assay and IC50 value determination (malachite green, 96- and 384-well format); format: biochemical; details: hydrolysis of dGTP (100 μM), MTH1 6 nM, pyrophosphatase-coupled malachite green, 15 minutes at 22° C.
Summary of the method: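 MTH1 (6 nM) hydrolysed dGTP (100 μM) for 15 min at 22 °C in Tris-acetate buffer with Mg2+, DTT, Tween 20 and excess pyrophosphatase, 1% DMSO. Pi detected with malachite green at 630 nm. IC50 from nonlinear 4-parameter fit of 11–12-point dilution series.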

Compound | IC50 (cancer cell) [nM] | IC50 (MTH1) [nM]
Cc1c(Cl)cccc1-c1cc(NCCc2ccc(NC#N)cc2)nc(N)n1 [Example 124, [4-[2-[[2-amino-6-(3-chloro-2-methyl-phenyl)pyrimidin-4-yl]amino]ethyl]phenyl]cyanamide] | < 500 | < 200
Cc1cccc(-c2cc(NCCNc3ccnc(N)n3)nc(N)n2)c1C [Example 126, 4-N-(2-{[2-amino-6-(2,3-dimethylphenyl)pyrimidin-4-yl]amino}ethyl)pyrimidine-2,4-diamine] | < 500 | < 200
Cc1cccc(-c2cc(NCCNc3ccc(N)nc3)nc(N)n2)c1C [Example 127, 5-N-(2-{[2-amino-6-(2,3-dimethylphenyl)pyrimidin-4-yl]amino}ethyl)pyridine-2,5-diamine] | < 500 | < 200
Cc1cccc(-c2cc(NCCNc3ccc(N)cc3F)nc(N)n2)c1C [Example 128, 1-N-(2-{[2-amino-6-(2,3-dimethylphenyl)pyrimidin-4-yl]amino}ethyl)-2-fluorobenzene-1,4-diamine] | < 500 | < 200
Cc1c(Cl)cccc1-c1cc(NCCCNc2ccc(C(N)=O)cc2)nc(N)n1 [Example 143, 4-[3-[[2-amino-6-(3-chloro-2-methyl-phenyl)pyrimidin-4-yl]amino]propylamino]benzamide] | < 500 | < 200
CNS(=O)(=O)c1ccc(NCCCNc2cc(-c3cccc(Cl)c3C)nc(N)n2)cc1 [Example 144, 4-[3-[[2-amino-6-(3-chloro-2-methyl-phenyl)pyrimidin-4-yl]amino]propylamino]-N-methyl-benzenesulfonamide] | < 500 | < 200
Cc1nc2ccc(NCCCNc3cc(-c4cccc(Cl)c4C)nc(N)n3)cc2s1 [Example 145, 6-(3-chloro-2-methyl-phenyl)-N4-[3-[(2-methyl-1,3-benzothiazol-6-yl)amino]propyl]pyrimidine-2,4-diamine] | < 500 | < 200
Cc1c(Cl)cccc1-c1cc(NCCNc2nccc(C(N)=O)n2)nc(N)n1 [Example 146, 2-[2-[[2-amino-6-(3-chloro-2-methyl-phenyl)pyrimidin-4-yl]amino]ethylamino]pyrimidine-4-carboxamide] | < 500 | < 200
CCNC(=O)Nc1cccc(CCNc2cc(-c3cccc(Cl)c3C)nc(N)n2)c1 [Example 148, 1-[3-[2-[[2-amino-6-(3-chloro-2-methyl-phenyl)pyrimidin-4-yl]amino]ethyl]phenyl]-3-ethyl-urea] | < 500 | < 200
Cc1c(Cl)cccc1-c1cc(NCCc2cccc(NC(=O)NC(C)(C)C)c2)nc(N)n1 [Example 149, 1-[3-[2-[[2-amino-6-(3-chloro-2-methyl-phenyl)pyrimidin-4-yl]amino]ethyl]phenyl]-3-tert-butyl-urea] | < 500 | < 200
Cc1c(Cl)cccc1-c1cc(NCCc2cccc(NC(=O)N3CCOCC3)c2)nc(N)n1 [Example 150, N-[3-[2-[[2-amino-6-(3-chloro-2-methyl-phenyl)pyrimidin-4-yl]amino]ethyl]phenyl]morpholine-4-carboxamide] | < 500 | < 200
Cc1c(Cl)cccc1-c1cc(NCCc2cccc(NC(=O)N(C)C)c2)nc(N)n1 [Example 151, 3-[3-[2-[[2-amino-6-(3-chloro-2-methyl-phenyl)pyrimidin-4-yl]amino]ethyl]phenyl]-1,1-dimethyl-urea] | < 500 | < 200
Cc1c(Cl)cccc1-c1cc(NCCc2cccc(NC(=O)N3CCCC3)c2)nc(N)n1 [Example 152, N-[3-[2-[[2-amino-6-(3-chloro-2-methyl-phenyl)pyrimidin-4-yl]amino]ethyl]phenyl]pyrrolidine-1-carboxamide] | < 500 | < 200
Cc1c(Cl)cccc1-c1cc(NCCc2cccc(NC(=O)OC(C)C)c2)nc(N)n1 [Example 153, isopropyl N-[3-[2-[[2-amino-6-(3-chloro-2-methyl-phenyl)pyrimidin-4-yl]amino]ethyl]phenyl]carbamate] | < 500 | < 200
Cc1c(Cl)cccc1-c1cc(NCCc2cccc(NC(=O)OCC(C)C)c2)nc(N)n1 [Example 154, isobutyl N-[3-[2-[[2-amino-6-(3-chloro-2-methyl-phenyl)pyrimidin-4-yl]amino]ethyl]phenyl]carbamate] | < 500 | < 200
Cc1c(Cl)cccc1-c1cc(NCCc2cccc(NC(=O)OCC(C)(C)C)c2)nc(N)n1 [Example 155, 2,2-dimethylpropyl N-[3-[2-[[2-amino-6-(3-chloro-2-methyl-phenyl)pyrimidin-4-yl]amino]ethyl]phenyl]carbamate] | < 500 | < 200
Cc1c(Cl)cccc1-c1cc(NCCNc2ncc(C(N)=O)c(C(F)(F)F)n2)nc(N)n1 [Example 159, 2-[2-[[2-amino-6-(3-chloro-2-methyl-phenyl)pyrimidin-4-yl]amino]ethylamino]-4-(trifluoromethyl)pyrimidine-5-carboxamide] | < 500 | < 200

Compound | IC50 (cancer cell) [nM] | IC50 (MTH1) [nM]
Cc1c(Cl)cccc1-c1cc(NCCNc2ccc(S(=O)(=O)C(C)C)cc2)nc(N)n1 [Example 160, 6-(3-chloro-2-methyl-phenyl)-N4-[2-(4-isopropylsulfonylanilino)ethyl]pyrimidine-2,4-diamine] | < 500 | < 200
Cc1c(Cl)cccc1-c1cc(NCCNc2ccc([S+](C)[O-])cc2)nc(N)n1 (stereo not drawn) [Example 161, 6-(3-chloro-2-methyl-phenyl)-N4-[2-(4-methylsulfinylanilino)ethyl]pyrimidine-2,4-diamine] | < 500 | < 200
Cc1c(Cl)cccc1-c1cc(NCCCNc2ccc(S(N)(=O)=O)cc2)nc(N)n1 [Example 163, 4-[3-[[2-amino-6-(3-chloro-2-methyl-phenyl)pyrimidin-4-yl]amino]propylamino]benzenesulfonamide] | < 500 | < 200
Cc1c(Cl)cccc1-c1cc(NCC(C)(C)CNc2ccc(S(N)(=O)=O)cc2)nc(N)n1 [Example 164, 4-[[3-[[2-amino-6-(3-chloro-2-methyl-phenyl)pyrimidin-4-yl]amino]-2,2-dimethyl-propyl]amino]benzenesulfonamide] | < 500 | < 200
Cc1nc2ccc(NCC(C)(C)CNc3cc(-c4cccc(Cl)c4C)nc(N)n3)cc2s1 [Example 165, 6-(3-chloro-2-methyl-phenyl)-N4-[2,2-dimethyl-3-[(2-methyl-1,3-benzothiazol-6-yl)amino]propyl]pyrimidine-2,4-diamine] | < 500 | < 200
Cc1c(Cl)cccc1-c1cc(NCCNc2cccc(S(=O)(=O)C(C)C)c2)nc(N)n1 [Example 166, 6-(3-Chloro-2-methyl-phenyl)-N4-[2-(3-isopropylsulfonylanilino)ethyl]pyrimidine-2,4-diamine] | < 500 | < 200
Cc1c(Cl)cccc1-c1cc(NCCCNc2ccc(C(N)=O)cn2)nc(N)n1 [Example 167, 6-[3-[[2-amino-6-(3-chloro-2-methyl-phenyl)pyrimidin-4-yl]amino]propylamino]pyridine-3-carboxamide] | < 500 | < 200
Cc1c(Cl)cccc1-c1cc(NCCCNc2nccc(C(N)=O)n2)nc(N)n1 [Example 168, 2-[3-[[2-amino-6-(3-chloro-2-methyl-phenyl)pyrimidin-4-yl]amino]propylamino]pyrimidine-4-carboxamide] | < 500 | < 200
Cc1c(Cl)cccc1-c1cc(NCCc2ccc(S(=O)(=O)C(C)C)cc2)nc(N)n1 [Example 169, 6-(3-chloro-2-methyl-phenyl)-N4-[2-(4-isopropylsulfonylphenyl)ethyl]pyrimidine-2,4-diamine] | < 500 | < 200
Cc1c(Cl)cccc1-c1cc(NCCc2cccc(S(=O)(=O)C(C)C)c2)nc(N)n1 [Example 170] | < 500 | < 200
Cc1c(Cl)cccc1-c1cc(NCCc2ccc(C(N)=O)c(F)c2)nc(N)n1 [Example 171, 4-[2-[[2-amino-6-(3-chloro-2-methyl-phenyl)pyrimidin-4-yl]amino]ethyl]-2-fluoro-benzamide] | < 500 | < 200
Cc1c(Cl)cccc1-c1cc(NCCc2ccc(S(C)(=O)=O)c(F)c2)nc(N)n1 [Example 172, 6-(3-chloro-2-methyl-phenyl)-N4-[2-(3-fluoro-4-methylsulfonyl-phenyl)ethyl]pyrimidine-2,4-diamine] | < 500 | < 200
Cc1c(Cl)cccc1-c1cc(NCCc2ccc(O)c(C(N)=O)c2)nc(N)n1 [Example 173, 5-[2-[[2-amino-6-(3-chloro-2-methyl-phenyl)pyrimidin-4-yl]amino]ethyl]-2-hydroxy-benzamide] | < 500 | < 200
Cc1c(Cl)cccc1-c1cc(NCCSc2nccc(C(N)=O)n2)nc(N)n1 [Example 174, 2-[2-[[2-amino-6-(3-chloro-2-methyl-phenyl)pyrimidin-4-yl]amino]ethylsulfanyl]pyrimidine-4-carboxamide] | < 500 | < 200
Cc1c(Cl)cccc1-c1cc(NCCSCc2ccc(S(C)(=O)=O)cc2)nc(N)n1 [Example 176, 6-(3-chloro-2-methyl-phenyl)-N4-[2-[(4-methylsulfonylphenyl)methylsulfanyl]ethyl]pyrimidine-2,4-diamine] | < 500 | < 200
Cc1c(Cl)cccc1-c1cc(NCCc2ccc(C(=O)OC(C)C)cc2)nc(N)n1 [Example 178, Isopropyl 4-[2-[[2-amino-6-(3-chloro-2-methyl-phenyl)pyrimidin-4-yl]amino]ethyl]benzoate] | < 500 | < 200
